Test results from the RepoRT retention time repository (doi:10.1016/j.scitotenv.2015.08.078).

Test: RP, Waters ACQUITY UPLC BEH C18, 100 × 2.1 mm, 1.7 µm, 0.3 mL/min, estimated dead time 0.73 min; A: water + 0.1% formic acid, pH 3; B: methanol + 0.1% formic acid, pH 3; gradient (min/%B) 0/10 14/90 16/90 18/10
Conditions: stereoisomer not certain

Row | Structure (SMILES) | LC retention time
1 | CC1(C)CCC(Cc2ccc(Cl)cc2)C1(O)Cn1cncn1 (stereo not drawn) [Metconazole] | 11.9 min
2 | COC(=O)C(C)=COP(=S)(OC)OC [Methacrifos] | 9.37 min
3 | CCC(=O)C(CC(C)N(C)C)(c1ccccc1)c1ccccc1 (stereo not drawn) [Methadone] | 10.4 min
4 | CNC(C)C(=O)c1ccccc1 (stereo not drawn) [Methcathinone] | 2.95 min
5 | COc1nn(CSP(=S)(OC)OC)c(=O)s1 [Methidathion] | 9.91 min
6 | CNC(=O)Oc1cc(C)c(S(C)(=O)=O)c(C)c1 [Methiocarb sulfone] | 4.46 min
7 | CNC(=O)Oc1cc(C)c(S(C)=O)c(C)c1 (stereo not drawn) [Methiocarb sulfoxide] | 4.6 min
8 | CNC(=O)Oc1cc(C)c(SC)c(C)c1 [Methiocarb] | 8.89 min
9 | CNC(=O)ON=C(C)SC [Methomyl] | 3.09 min
10 | CON(C)C(=O)Nc1ccc(Br)cc1 [Metobromuron] | 8.53 min
11 | CCc1cccc(C)c1N(C(=O)CCl)C(C)COC (stereo not drawn) [Metolachlor] | 11.7 min
12 | COCCc1ccc(OCC(O)CNC(C)C)cc1 (stereo not drawn) [Metoprolol] | 5.31 min
13 | COc1cc(OC)n2nc(S(=O)(=O)Nc3c(Cl)ccc(C)c3Cl)nc2n1 [Metosulam] | 7.54 min
14 | COc1ccc(NC(=O)N(C)C)cc1Cl [Metoxuron] | 6.3 min
15 | CSc1nnc(C(C)(C)C)c(=O)n1N [Metribuzin] | 7.06 min
16 | Cc1ncc([N+](=O)[O-])n1CCO [Metronidazole (MNZ)] | 5.38 min
17 | COC(=O)c1ccccc1S(=O)(=O)NC(=O)Nc1nc(C)nc(OC)n1 [Metsulfuron methyl] | 5 min
18 | COC(=O)C=C(C)OP(=O)(OC)OC [Mevinphos trans] | 4.95 min
19 | CCC1(C2OC(C3OC(O)(CO)C(C)CC3C)CC2C)CCC(C2(C)CCC3(CC(O)C(C)C(C(C)C(OC)C(C)C(=O)O)O3)O2)O1 (stereo not drawn) [Monensin] | 15.3 min
20 | CNC(=O)C=C(C)OP(=O)(OC)OC [Monocrotophos] | 3.57 min
21 | CON(C)C(=O)Nc1ccc(Cl)cc1 [Monolinuron] | 8.07 min
22 | CN1CCC23c4c5ccc(O)c4OC2C(O)C=CC3C1C5 (stereo not drawn) [Morphine] | 2.86 min

Row | Structure (SMILES) | LC retention time
23 | CON=C1CC2(CC3CC(CC=C(C)CC(C)C=CC=C4COC5C(O)C(C)=CC(C(=O)O3)C45O)O2)OC(C(C)=CC(C)C)C1C (stereo not drawn) [Moxidectin] | 15.8 min
24 | COc1c(N2CC3CCCNC3C2)c(F)cc2c(=O)c(C(=O)O)cn(C3CC3)c12 (stereo not drawn) [Moxifloxacin] | 5.23 min
25 | CCCCC(C#N)(Cn1cncn1)c1ccc(Cl)cc1 (stereo not drawn) [Myclobutanil] | 10.6 min
26 | CCn1cc(C(=O)O)c(=O)c2ccc(C)nc21 [Nalidixic acid] | 7.99 min
27 | CC12CCC3C4CCC(=O)C=C4CCC3C1CCC2O (stereo not drawn) [Nandrolone. beta-nortestosterone] | 10.6 min
28 | CCN(CC)C(=O)C(C)Oc1cccc2ccccc12 (stereo not drawn) [Napropamide] | 11 min
29 | O=C(O)c1ccccc1C(=O)Nc1cccc2ccccc12 [Naptalam] | 6.59 min
30 | CCC(C(=O)O)C1OC(C(C)C(O)C(C)C(=O)C(CC)C2OC3(C=CC(O)C4(CCC(C)(C5CCC(O)(CC)C(C)O5)O4)O3)C(C)CC2C)C(C)CC1C (stereo not drawn) [Narasin] | 16.5 min
31 | COc1cc(OC)nc(NC(=O)NS(=O)(=O)c2ncccc2C(=O)N(C)C)n1 [Nicosulfuron] | 5.39 min
32 | CN1CCCC1c1cccnc1 (stereo not drawn) [Nicotine] | 1.12 min
33 | O=C1CN(N=Cc2ccc([N+](=O)[O-])o2)C(=O)N1 [Nitrofurantoin] | 2.83 min
34 | NC(=O)NN=Cc1ccc([N+](=O)[O-])o1 [Nitrofurazone] | 2.99 min
35 | O=C(OC1CC2CCC(N2)C1C(=O)O)c1ccccc1 (stereo not drawn) [Norbenzoylecgonine] | 5.1 min
36 | COC(=O)C1C2CCC(CC1OC(=O)c1ccccc1)N2 (stereo not drawn) [Norcocaine] | 6.29 min
37 | O=C1CN=C(c2ccccc2)c2cc(Cl)ccc2N1 [Nordiazepam] | 10.5 min
38 | CCn1cc(C(=O)O)c(=O)c2cc(F)c(N3CCNCC3)cc21 [Norfloxacin] | 4.27 min
39 | CNc1cnn(-c2cccc(C(F)(F)F)c2)c(=O)c1Cl [Norflurazon] | 9.22 min
40 | O=C(NC(=O)c1c(F)cccc1F)Nc1ccc(OC(F)(F)C(F)OC(F)(F)F)c(Cl)c1 (stereo not drawn) [Novaluron] | 12.6 min
41 | OC(c1ccc(F)cc1)(c1cncnc1)c1ccccc1Cl (stereo not drawn) [Nuarimol (Trimidal)] | 10 min
42 | CCCCCc1cc(O)c2c(c1)OC(C)(C)C1CC(O)C(C)=CC21 (stereo not drawn) [OH-THC] | 13.9 min
43 | CC1Cc2c(Cl)cc(C(=O)NC(Cc3ccccc3)C(=O)O)c(O)c2C(=O)O1 (stereo not drawn) [Ochratoxin A] | 9.15 min
44 | CC1Cc2c(Cl)cc(C(=O)O)c(O)c2C(=O)O1 (stereo not drawn) [Ochratoxin Alpha] | 11.2 min

Row | Structure (SMILES) | LC retention time
45 | CCCCCCCCn1sccc1=O [Octhilinone (2-Octyl-4-isothiazoline-3-one)] | 11 min
46 | CC1COc2c(N3CCN(C)CC3)c(F)cc3c(=O)c(C(=O)O)cn1c23 (stereo not drawn) [Ofloxacin] | 4.08 min
47 | Cc1cccc(C)c1N(C(=O)CCl)C1CCOC1=O (stereo not drawn) [Ofurace] | 7.69 min
48 | Cc1cc2c(s1)Nc1ccccc1N=C2N1CCN(C)CC1 [Olanzapine] | 3.3 min
49 | COc1ccc2nc(S(=O)Cc3ncc(C)c(OC)c3C)[nH]c2c1 (stereo not drawn) [Omeprazole] | 7.14 min
50 | CNC(=O)CSP(=O)(OC)OC [Omethoate] | 2.5 min
51 | CCN(CC)C(=O)SCc1ccccc1Cl [Orbencarb] | 11.9 min
52 | CCCN(CCC)c1c([N+](=O)[O-])cc(S(N)(=O)=O)cc1[N+](=O)[O-] [Oryzalin] | 11.1 min
53 | CC(C)Oc1cc(-n2nc(C(C)(C)C)oc2=O)c(Cl)cc1Cl [Oxadiazon] | 13 min
54 | COCC(=O)N(c1c(C)cccc1C)N1CCOC1=O [Oxadixyl] | 6.71 min
55 | CNC(=O)ON=C(SC)C(=O)N(C)C [Oxamyl] | 2.84 min
56 | Cc1cc(C)nc(NC(=O)NS(=O)(=O)c2ccccc2C(=O)OC2COC2)n1 [Oxasulfuron] | 6.3 min
57 | COC(=O)Nc1nc2ccc(S(=O)c3ccccc3)cc2[nH]1 (stereo not drawn) [Oxfendazole] | 7.31 min
58 | CCn1cc(C(=O)O)c(=O)c2cc3c(cc21)OCO3 [Oxolinic acid] | 6.58 min
59 | CC1=C(C(=O)Nc2ccccc2)S(=O)(=O)CCO1 [Oxycarboxin] | 5.41 min
60 | CCS(=O)CCSP(=O)(OC)OC (stereo not drawn) [Oxydemeton-methyl] | 3.15 min
61 | CCOc1cc(Oc2ccc(C(F)(F)F)cc2Cl)ccc1[N+](=O)[O-] [Oxyfluorfen] | 13.8 min
62 | CCCCC1C(=O)N(c2ccccc2)N(c2ccc(O)cc2)C1=O (stereo not drawn) [Oxyphenylbutazone] | 9.97 min
63 | CN(C)C1C(=O)C(C(N)=O)=C(O)C2(O)C(=O)C3=C(O)c4c(O)cccc4C(C)(O)C3C(O)C12 (stereo not drawn) [Oxytetracycline] | 3.94 min
64 | CC(C)(C)C(O)C(Cc1ccc(Cl)cc1)n1cncn1 (stereo not drawn) [Paclobutrazol] | 10.8 min
65 | COc1ccnc(CS(=O)c2nc3ccc(OC(F)F)cc3[nH]2)c1OC (stereo not drawn) [Pantoprazol] | 7.67 min
66 | COP(=S)(OC)Oc1ccc([N+](=O)[O-])cc1 [Parathion-methyl] | 9.6 min

Row | Structure (SMILES) | LC retention time
67 | CCOP(=S)(OCC)Oc1ccc([N+](=O)[O-])cc1 [Parathion] | 11.3 min
68 | Fc1ccc(C2CCNCC2COc2ccc3c(c2)OCO3)cc1 (stereo not drawn) [Paroxetine] | 9.22 min
69 | CCCCN(CC)C(=O)SCCC [Pebulate (Tillam)] | 12.1 min
70 | CCn1cc(C(=O)O)c(=O)c2cc(F)c(N3CCN(C)CC3)cc21 [Pefloxacin] | 4.09 min
71 | CCCC(Cn1cncn1)c1ccc(Cl)cc1Cl (stereo not drawn) [Penconazole] | 11.6 min
72 | O=C(Nc1ccccc1)N(Cc1ccc(Cl)cc1)C1CCCC1 [Pencycuron] | 12.2 min
73 | CCC(CC)Nc1c([N+](=O)[O-])cc(C)c(C)c1[N+](=O)[O-] [Pendimethalin] | 14.2 min
74 | C=C(C)C1(O)OC(=O)C=C1OC (stereo not drawn) [Penicillic acid] | 3.78 min
75 | CC1(C)SC2C(NC(=O)Cc3ccccc3)C(=O)N2C1C(=O)O (stereo not drawn) [Penicillin G] | 8.55 min
76 | COC(=O)Nc1cccc(OC(=O)Nc2cccc(C)c2)c1 [Phenmedipham] | 9.52 min
77 | CCCCC1C(=O)N(c2ccccc2)N(c2ccccc2)C1=O [Phenylbutazone] | 11.6 min
78 | CCOP(=S)(OCC)SCS(=O)(=O)CC [Phorate sulfone] | 8.76 min
79 | CCOP(=S)(OCC)SCn1c(=O)oc2cc(Cl)ccc21 [Phosalone] | 12 min
80 | COP(=S)(OC)SCN1C(=O)c2ccccc2C1=O [Phosmet] | 9.52 min
81 | CCOP(=S)(OCC)ON=C(C#N)c1ccccc1 [Phoxim] | 11.9 min
82 | CCn1cc(C(=O)O)c(=O)c2cnc(N3CCNCC3)nc21 [Pipemidic acid] | 3.48 min
83 | CCCOP(=S)(OCCC)SCC(=O)N1CCCCC1C (stereo not drawn) [Piperophos] | 12.3 min
84 | Cc1nc(N(C)C)nc(OC(=O)N(C)C)c1C [Pirimicarb] | 5.67 min
85 | CCOP(=S)(OCC)Oc1cc(C)nc(N(CC)CC)n1 [Pirimiphos-ethyl] | 13 min
86 | CCN(CC)c1nc(C)cc(OP(=S)(OC)OC)n1 [Pirimiphos-methyl] | 12.4 min
87 | CCC(C)C(=O)OC1CC(O)C=C2C=CC(C)C(CCC(O)CC(O)CC(=O)O)C21 (stereo not drawn) [Pravastatin] | 7.96 min
88 | O=C(C1CCCCC1)N1CC(=O)N2CCc3ccccc3C2C1 (stereo not drawn) [Praziquantel] | 10.1 min
